Source: BindingDB's records for doi:10.1073/pnas.0707365104 (Institut National De La Sant&#163, 2007)

Experiment: Inhibition of human telomerase expressed in HEK293T cells treated after telomerase elongation by telomeric repeat amplification protocol assay

IC50: 65 nM
SMILES: CN(C)c1ccc(Nc2c3ccc(NC(=O)CCN4CCCC4)cc3nc3cc(NC(=O)CCN4CCCC4)ccc23)cc1 [N,N'-(9-{[4-(dimethylamino)phenyl]amino}acridine-3,6-diyl)bis(3-pyrrolidin-1-ylpropanamide)]
